Source: US20150050734A1, “Carbon Nanotubes And Methods Of Use” (DUKE UNIVERSITY, priority 2012, published 2015)
Entries after “also recorded” stand apart in the source; their conditions may differ.

Legend:
[1] = test system: primary cortical neurons; test: Clomeleon-based ratiometric chloride imaging; format: cell-based, rat; settings: for effect on neuronal [Cl−]i: KN93 1 μM
Procedure: The preparation of primary cortical neurons was adapted from a previous protocol. […] Briefly, cortices were microdissected from embryonic rats (E18) or mice (E16.5).
The tissue was dissociated using papain, followed by mechanical dissociation. Cytosine arabinoside (2.5 μM) was added to cultures to inhibit the proliferation of non-neuronal cells. Cell suspension was plated at a density of 10^6 cells mL^−1 onto tissue-culture dishes. 12 mm-diameter matrix-covered glass coverslips were contained in tissue culture dishes, typically n=3.

[2] = test system: KCC2; test: KCC2 immunocytochemistry / densitometry in cultured neurons; format: cell-based, rat; settings: KN93 1 μM
Procedure: Confocal fluorescence imaging was conducted after immunolabeling for β3-tubulin (mouse monoclonal antibody; 1:200, Iowa hybridoma bank, Iowa City, United States), and KCC2 (rabbit polyclonal antibody; Abcam; 1:200). Id.. Fluorescently labeled sections were visualized in a Zeiss LSM710 (Carl Zeiss AG, Oberkochen, Germany) confocal imaging suite with lasers tuned to the […] spectra of the secondary fluorescent antibodies (coupled to Alexa-488 and Alexa-595 dyes), as described previously. Li, J. et al. (2011) Environ Health Perspect 119:784-793.
Morphometry for confocal and light-microscopy acquired images was conducted as previously described. Yeo, M. et al. (2009) J. Neurosci 29:14652-14662.

| Structure (SMILES) | effect on acceleration of the chloride shift and upregulation of KCC2 ([1]; KN62 1 μM, fwCNT-cultured primary neurons) | effect on neuronal [Cl−]i ([1]; Au-cultured neurons) | effect on neuronal [Cl−]i ([1]; fwCNT-cultured neurons) | effect on KCC2 expression ([2]; Au-cultured neurons) | effect on KCC2 upregulation ([2]; fwCNT-cultured neurons) |
| --- | --- | --- | --- | --- | --- |
| CN([C@@H](Cc1ccc(OS(=O)(=O)c2cccc3cnccc23)cc1)C(=O)N1CCN(c2ccccc2)CC1)S(=O)(=O)c1cccc2cnccc12 [KN62] | Dependence of acceleration of the chloride shift and upregulation of KCC2 |  |  |  |  |
| COc1ccc(S(=O)(=O)N(CCO)c2ccccc2CN(C)C/C=C/c2ccc(Cl)cc2)cc1 [KN93] |  | also not on Au-cultured neurons | specific and powerful effect | modest reduction; also recorded: relative lack effect | strict dependence |
